Our source for the Solubility and solubility values is patent US9593149B2, “Amylin and calcitonin receptor agonist” (Novo Nordisk A/S, priority 2014, dated 2017).

In brackets after ≈: the same amount, converted by molar mass. Numbered stars: 1 amine (or outer) side, 2 acyl side, 3 side chain; on linkers, the order of the positions; unused ones are H or OH. Peptide text beside a SMILES is read from it. * marks the point of attachment. C20 diacid = O=C(O)CCCCCCCCCCCCCCCCCCC(=O)*; C18 diacid = O=C(O)CCCCCCCCCCCCCCCCC(=O)*; γGlu = O=C(O)[C@H](CCC(=O)[*:2])N[*:1]; C14 diacid = O=C(O)CCCCCCCCCCCCC(=O)*

A short description of the data set: Assay (IV) determination of solubility. It counts as physicochemical. The procedure:
Assay (IV)—Determination of Solubility
The mimylin peptide was dissolved in water at ˜500 nmol/ml and mixed 1:1 with a series of buffers (100 mM glycylglycine pH 3.0, 100 mM glycylglycine pH 4.0, 100 mM glycylglycine pH 5.0, 100 mM bistrispropane pH 6.0, 100 mM bistrispropane pH 6.5, 100 mM bistrispropane pH 7.0, 100 mM bistrispropane pH 7.5, 100 mM bistrispropane pH 8.0).

With `CC(C)C[C@H](NC(=O)[C@H](C)NC(=O)[C@H](C)NC(=O)[C@@H](NC(=O)[C@H](CO)NC(=O)[C@H](CC(C)C)NC(=O)[C@H](CCC(=O)O)NC(=O)[C@H](CO)NC(=O)[C@H](C)NC(=O)CC[C@H](NC(=O)CCCCCCCCCCCCCCCCCCC(=O)O)C(=O)O)[C@@H](C)O)C(=O)NCC(=O)N[C@@H](CCCNC(=N)N)C(=O)N[C@@H](CC(C)C)C(=O)N[C@@H](CO)C(=O)N[C@@H](C)C(=O)N[C@@H](CCC(=O)O)C(=O)N[C@@H](CC(C)C)C(=O)N[C@@H](Cc1cnc[nH]1)C(=O)N[C@@H](CCC(=O)O)C(=O)N[C@@H](CC(C)C)C(=O)N[C@@H](C)C(=O)N[C@H](C(=O)N[C@@H](CC(C)C)C(=O)N1CCC[C@H]1C(=O)N[C@@H](CCCNC(=N)N)C(=O)N[C@H](C(=O)N[C@@H](CCC(=O)O)C(=O)N[C@H](C(=O)NCC(=O)N[C@@H](CO)C(=O)NCC(=O)N[C@@H](CO)C(=O)N[C@@H](C)C(N)=O)[C@@H](C)O)[C@@H](C)O)[C@@H](C)O` [compound 65, [N-terminal(C20 diacid-gGlu), des1, 30S, 31G, 33A]mimylin] ({C20 diacid-γGlu}-ASELSTAALGRLSAELHELATLPRTETGSGSA-NH2), the Solubility result reads like this: (pH 3.0) “≧200 μM”; (pH 4.0) “≧200 μM”; (pH 5.0) “≧200 μM”; (pH 6.0) “≧200 μM”; (pH 6.5) “≧200 μM”; (pH 7.0) “≧200 μM”. The Solubility result (pH 7.5) is recorded as “≧200 μM” and the Solubility result (pH 8.0) is “≧200 μM”.

Consider `CC(C)C[C@H](NC(=O)CNC(=O)[C@H](CO)NC(=O)[C@H](C)NC(=O)[C@H](CCC(=O)O)NC(=O)CC[C@H](NC(=O)CCCCCCCCCCCCCCCCCCC(=O)O)C(=O)O)C(=O)N[C@@H](CO)C(=O)N[C@H](C(=O)N[C@@H](C)C(=O)N[C@@H](C)C(=O)N[C@@H](CC(C)C)C(=O)NCC(=O)N[C@@H](CCCNC(=N)N)C(=O)N[C@@H](CC(C)C)C(=O)N[C@@H](CO)C(=O)N[C@@H](CCC(N)=O)C(=O)N[C@@H](CCC(=O)O)C(=O)N[C@@H](CC(C)C)C(=O)N[C@@H](Cc1cnc[nH]1)C(=O)N[C@@H](CCC(=O)O)C(=O)N[C@@H](CC(C)C)C(=O)N[C@@H](CCC(N)=O)C(=O)N[C@H](C(=O)N[C@@H](Cc1ccc(O)cc1)C(=O)N1CCC[C@H]1C(=O)N[C@@H](CCCNC(=N)N)C(=O)N[C@H](C(=O)N[C@@H](CCC(=O)O)C(=O)N[C@H](C(=O)NCC(=O)N[C@@H](CO)C(=O)NCC(=O)N[C@H](C(=O)N[C@@H](Cc1ccc(O)cc1)C(N)=O)[C@@H](C)O)[C@@H](C)O)[C@@H](C)O)[C@@H](C)O)[C@@H](C)O` [compound 103, [N-terminal(C20 diacid-gGlu), 4G, 15Q, 21Q, 23Y, 30S, 31G, 32T, 33Y]mimylin] ({C20 diacid-γGlu}-EASGLSTAALGRLSQELHELQTYPRTETGSGTY-NH2), for which the Solubility result is reported as “≧200 μM” (pH 3.0); “≧200 μM” (pH 4.0); “≧200 μM” (pH 6.0); “≧200 μM” (pH 6.5); “≧200 μM” (pH 7.0); “≧200 μM” (pH 7.5). Moreover, the Solubility result (pH 8.0) is “≧200 μM”. For the setting “pH 5.0”, this compound gave a solubility at 18 h of 156 µM (≈ 620 µg/mL).

As to `CC(C)C[C@H](NC(=O)[C@H](C)NC(=O)[C@H](CC(C)C)NC(=O)[C@@H](NC(=O)[C@H](CO)NC(=O)[C@H](CC(C)C)NC(=O)[C@H](CCC(=O)O)NC(=O)[C@H](CO)NC(=O)[C@H](C)NC(=O)[C@H](CCC(=O)O)NC(=O)CCCCCCCCCCCCCCCCC(=O)O)[C@@H](C)O)C(=O)NCC(=O)N[C@@H](CCCNC(=N)N)C(=O)N[C@@H](CC(C)C)C(=O)N[C@@H](CO)C(=O)N[C@@H](C)C(=O)N[C@@H](CCC(=O)O)C(=O)N[C@@H](CC(C)C)C(=O)N[C@@H](Cc1cnc[nH]1)C(=O)N[C@@H](CCC(=O)O)C(=O)N[C@@H](CC(C)C)C(=O)N[C@@H](C)C(=O)N[C@H](C(=O)N[C@@H](CC(C)C)C(=O)N1CCC[C@H]1C(=O)N[C@@H](CCCNC(=N)N)C(=O)N[C@H](C(=O)N[C@@H](CCC(=O)O)C(=O)N[C@H](C(=O)NCC(=O)N1CCC[C@H]1C(=O)N[C@@H](CCC(=O)O)C(=O)N[C@@H](CO)C(=O)N1CCC[C@H]1C(N)=O)[C@@H](C)O)[C@@H](C)O)[C@@H](C)O` [compound 15, [N-terminal(C18 diacid), 8L]mimylin] ({C18 diacid}-EASELSTLALGRLSAELHELATLPRTETGPESP-NH2), the Solubility entry was “≧200 μM” (pH 3.0); “≧200 μM” (pH 4.0); “≧200 μM” (pH 5.0); “≧200 μM” (pH 6.0); “≧200 μM” (pH 6.5); “≧200 μM” (pH 7.0). For the same compound, the Solubility entry (pH 7.5) was “≧200 μM” and the Solubility result (pH 8.0) was “≧200 μM”.

For `CC(C)C[C@H](NC(=O)[C@H](C)NC(=O)[C@H](C)NC(=O)[C@@H](NC(=O)[C@H](CO)NC(=O)[C@H](CC(C)C)NC(=O)[C@H](CCC(=O)O)NC(=O)[C@H](CO)NC(=O)[C@H](C)NC(=O)CC[C@H](NC(=O)CCCCCCCCCCCCC(=O)O)C(=O)O)[C@@H](C)O)C(=O)NCC(=O)N[C@@H](CCCNC(=N)N)C(=O)N[C@@H](CC(C)C)C(=O)N[C@@H](CO)C(=O)N[C@@H](C)C(=O)N[C@@H](CCC(=O)O)C(=O)N[C@@H](CC(C)C)C(=O)N[C@@H](Cc1cnc[nH]1)C(=O)N[C@@H](CCC(=O)O)C(=O)N[C@@H](CC(C)C)C(=O)N[C@@H](C)C(=O)N[C@H](C(=O)N[C@@H](CC(C)C)C(=O)N1CCC[C@H]1C(=O)N[C@@H](CCCNC(=N)N)C(=O)N[C@H](C(=O)N[C@@H](CCC(=O)O)C(=O)N[C@H](C(=O)NCC(=O)N1CCC[C@H]1C(=O)N[C@@H](CCC(=O)O)C(=O)N[C@@H](CO)C(=O)N1CCC[C@H]1C(N)=O)[C@@H](C)O)[C@@H](C)O)[C@@H](C)O` [compound 19, [N-terminal(C14 diacid-gGlu), des1]mimylin] ({C14 diacid-γGlu}-ASELSTAALGRLSAELHELATLPRTETGPESP-NH2), the Solubility entry (pH 3.0) is given as “≧200 μM”; the Solubility entry (pH 4.0) is reported as “≧200 μM”; the Solubility entry (pH 5.0) is recorded as “≧200 μM”; the Solubility entry (pH 6.0) is “≧200 μM”; the Solubility entry (pH 6.5) is listed as “≧200 μM”; the Solubility result (pH 7.0) was “≧200 μM”. Besides, the Solubility entry (pH 7.5) is on record as “≧200 μM” and the Solubility result (pH 8.0) is “≧200 μM”.

With `CC(C)C[C@H](NC(=O)[C@H](C)NC(=O)[C@H](C)NC(=O)[C@@H](NC(=O)[C@H](CO)NC(=O)[C@H](CC(C)C)NC(=O)[C@H](CCC(N)=O)NC(=O)[C@H](CO)NC(=O)[C@H](C)NC(=O)CC[C@H](NC(=O)CCCCCCCCCCCCCCCCC(=O)O)C(=O)O)[C@@H](C)O)C(=O)NCC(=O)N[C@@H](CCCNC(=N)N)C(=O)N[C@@H](CC(C)C)C(=O)N[C@@H](CO)C(=O)N[C@@H](C)C(=O)N[C@@H](CCC(=O)O)C(=O)N[C@@H](CC(C)C)C(=O)N[C@@H](Cc1cnc[nH]1)C(=O)N[C@@H](CCC(=O)O)C(=O)N[C@@H](CC(C)C)C(=O)N[C@@H](C)C(=O)N[C@H](C(=O)N[C@@H](CC(C)C)C(=O)N1CCC[C@H]1C(=O)N[C@@H](CCCNC(=N)N)C(=O)N[C@H](C(=O)N[C@@H](CCC(=O)O)C(=O)N[C@H](C(=O)NCC(=O)N[C@@H](CO)C(=O)NCC(=O)N[C@@H](CO)C(=O)N1CCC[C@H]1C(N)=O)[C@@H](C)O)[C@@H](C)O)[C@@H](C)O` [compound 78, [N-terminal(C18 diacid-gGlu), des1, 4Q, 30S, 31G]mimylin] ({C18 diacid-γGlu}-ASQLSTAALGRLSAELHELATLPRTETGSGSP-NH2), the Solubility result (pH 3.0) is given as “≧200 μM”; the Solubility entry (pH 4.0) was “≧200 μM”; the Solubility entry (pH 5.0) is recorded as “≧200 μM”; the Solubility result (pH 6.0) was “≧200 μM”; the Solubility result (pH 6.5) was “≧200 μM”; the Solubility entry (pH 7.0) is listed as “≧200 μM”. The Solubility entry is given as “≧200 μM” (pH 7.5) and “≧200 μM” (pH 8.0).

In the case of `CC(C)C[C@H](NC(=O)CNC(=O)[C@H](CO)NC(=O)[C@H](C)NC(=O)CC[C@H](NC(=O)CCCCCCCCCCCCCCCCCCC(=O)O)C(=O)O)C(=O)N[C@@H](CO)C(=O)N[C@H](C(=O)N[C@@H](C)C(=O)N[C@H](C(=O)N[C@@H](CC(C)C)C(=O)NCC(=O)N[C@@H](CCCNC(=N)N)C(=O)N[C@@H](CC(C)C)C(=O)N[C@@H](CO)C(=O)N[C@@H](C)C(=O)N[C@@H](CCC(=O)O)C(=O)N[C@@H](CC(C)C)C(=O)N[C@@H](Cc1cnc[nH]1)C(=O)N[C@@H](CCC(=O)O)C(=O)N[C@@H](CC(C)C)C(=O)N[C@@H](C)C(=O)N[C@H](C(=O)N[C@@H](Cc1ccc(O)cc1)C(=O)N1CCC[C@H]1C(=O)N[C@@H](CCCNC(=N)N)C(=O)N[C@H](C(=O)N[C@@H](CCC(=O)O)C(=O)N[C@H](C(=O)NCC(=O)N[C@@H](CO)C(=O)NCC(=O)N[C@H](C(=O)N[C@@H](Cc1ccc(O)cc1)C(N)=O)[C@@H](C)O)[C@@H](C)O)[C@@H](C)O)[C@@H](C)O)C(C)C)[C@@H](C)O` [compound 104, [N-terminal(C20 diacid-gGlu), des1, 4G, 9V, 23Y, 30S, 31G, 32T, 33Y]mimylin] ({C20 diacid-γGlu}-ASGLSTAVLGRLSAELHELATYPRTETGSGTY-NH2), the Solubility result is “≧200 μM” (pH 3.0); “≧200 μM” (pH 4.0); “≧200 μM” (pH 6.0); “≧200 μM” (pH 6.5); “≧200 μM” (pH 7.0); “≧200 μM” (pH 7.5). The Solubility result (pH 8.0) is “≧200 μM”. The compound further gave a solubility at 18 h (pH 5.0) of 119 µM (≈ 448 µg/mL).
